Test results published in ChEMBL document CHEMBL5108012, “Discovery of 2,5-diphenyl-1,3,4-thiadiazole derivatives as HDAC inhibitors with DNA binding affinity” (Eur J Med Chem, 2022).
pIC50: −log10 of the molar value. Active and inactive are the calls of the source. No cut-off for these calls is given here.

Tests used:
MC-38 [1] = test: Antitumor activity against mouse MC38 cells xenografted in C57BL/6 mouse assessed as induction of apoptosis in tumor at 50 to 100 mg/kg, ip administered every 2 days for 16 consecutive days measured by TUNEL staining based assay; assay type: functional, organism-based; conditions: dose 50-100 mg/kg, time 16.0 day
HCT-116 [2] = test: Induction of apoptosis in human HCT-116 cells assessed as late apoptotic cells at 1.5 uM incubated for 48 hrs by PI and annexin V-FITC staining based flow cytometry (reference value: 3.4%); assay type: functional
K562 = test: Antiproliferative activity against human K562 cells after 48 hrs by CCK-8 assay; assay type: functional, cell-based; conditions: K562, 48 h
MC-38 [3] = test: Antitumor activity against mouse MC38 cells xenografted in C57BL/6 mouse assessed as tumor growth inhibition at 100 mg/kg, ip administered every 2 days for 16 consecutive days; assay type: functional; conditions: MC-38, 384 h, time 16 day, read-out: TGI
Histone deacetylase 8 = biological target: T1, Histone deacetylase 8 (Homo sapiens, UniProt Q9BY41); test: Inhibition of HDAC8 in human HeLa cell nuclear extract using Boc-Lys(Ac)-AMC or Boc-Lys(triflouroacetyl)-AMC as substrate incubated for 30 mins and measured by fluorescence assay; assay type: cell-free
T1 sequence (Q9BY41 whole entry): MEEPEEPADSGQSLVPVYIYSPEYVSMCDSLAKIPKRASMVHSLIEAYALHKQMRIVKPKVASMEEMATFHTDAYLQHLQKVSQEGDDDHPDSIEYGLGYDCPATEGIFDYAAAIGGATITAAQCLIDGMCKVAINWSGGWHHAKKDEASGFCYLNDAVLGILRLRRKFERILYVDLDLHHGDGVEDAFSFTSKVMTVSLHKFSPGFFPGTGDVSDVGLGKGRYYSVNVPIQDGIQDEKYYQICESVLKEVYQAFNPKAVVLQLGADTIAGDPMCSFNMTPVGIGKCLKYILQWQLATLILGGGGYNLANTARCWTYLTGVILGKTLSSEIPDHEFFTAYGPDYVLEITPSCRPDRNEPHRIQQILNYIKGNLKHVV

DNA = test: Binding affinity to pBR322 DNA (unknown origin) at 10 to 50 uM after 30 mins by Agarose gel electrophoresis; assay type: nucleic-acid assay; conditions: dose 10-50 µM
Calf thymus DNA [4] = test: Binding affinity to calf thymus DNA at 50 uM incubated for 30 mins and measured by fluorescence spectroscopy; assay type: nucleic-acid assay; conditions: Bos taurus
Histone deacetylase 1 = Histone deacetylase 1 (Homo sapiens, UniProt Q13547); test: Inhibition of HDAC1 in human HeLa cell nuclear extract using Boc-Lys(Ac)-AMC or Boc-Lys(triflouroacetyl)-AMC as substrate incubated for 30 mins and measured by fluorescence assay; assay type: cell-free
Histone deacetylase 1, sequence (Q13547 whole entry): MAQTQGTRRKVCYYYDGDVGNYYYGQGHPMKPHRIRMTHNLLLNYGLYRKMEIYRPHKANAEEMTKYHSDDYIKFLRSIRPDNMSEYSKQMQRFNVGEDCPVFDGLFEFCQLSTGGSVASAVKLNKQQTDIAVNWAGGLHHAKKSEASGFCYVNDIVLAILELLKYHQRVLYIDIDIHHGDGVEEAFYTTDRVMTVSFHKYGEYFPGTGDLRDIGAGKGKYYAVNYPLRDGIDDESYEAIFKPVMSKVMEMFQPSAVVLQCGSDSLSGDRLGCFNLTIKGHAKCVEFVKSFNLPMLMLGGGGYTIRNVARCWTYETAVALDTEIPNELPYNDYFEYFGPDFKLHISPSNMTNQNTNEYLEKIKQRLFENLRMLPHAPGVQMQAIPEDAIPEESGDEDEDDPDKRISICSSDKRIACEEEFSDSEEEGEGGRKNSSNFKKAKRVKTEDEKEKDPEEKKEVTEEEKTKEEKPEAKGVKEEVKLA

MC38 = test: Inhibition of HDAC in mouse MC-38 cells assessed as increase in acetylated alpha-tubulin expression expression at 0.17 to 1.5 uM incubated for 48 hrs by Western blot analysis; assay type: cell-based; conditions: dose 0.17-1.5 µM
[5] = biological target: Histone deacetylase (HDAC1 and HDAC2) (Homo sapiens, UniProt Q13547+Q92769); test: Inhibition of HDAC1/HDAC2 in human HeLa cell nuclear extract using Boc-Lys(Ac)-AMC as substrate and measured by fluorometric method; assay type: cell-based
[6] = biological target: T2, Histone deacetylase (Homo sapiens) (UniProt Q13547+O15379+Q9UBN7+Q92769+Q9UQL6+Q8WUI4+Q9BY41+Q96DB2+P56524+Q9UKV0+Q969S8); test: Inhibition of HDAC in human HCT-116 cells assessed as increase in acetylated alpha-tubulin expression expression at 0.17 to 1.5 uM incubated for 48 hrs by Western blot analysis; assay type: cell-based; conditions: dose 0.17-1.5 µM
HCT-116 [7] = test: Antiproliferative activity against human HCT-116 cells after 48 hrs by CCK-8 assay; assay type: functional, cell-based; conditions: HCT-116, 48 h
HEL = test: Antiproliferative activity against human HEL cells after 48 hrs by CCK-8 assay; assay type: functional, cell-based
[8] = biological target: T2, Histone deacetylase (Homo sapiens); test: Inhibition of HDAC in human HCT-116 cells assessed as increase in acetylated HH3 expression expression at 0.17 to 1.5 uM incubated for 48 hrs by Western blot analysis; assay type: cell-based; conditions: dose 0.17-1.5 µM
HepG2 = test: Antiproliferative activity against human HepG2 cells after 48 hrs by CCK-8 assay; assay type: functional, cell-based; conditions: HepG2, 48 h
Calf thymus DNA [9] = test: Binding affinity to calf thymus DNA at 50 uM incubated for 30 mins and measured by UV-vis absorption spectroscopy; assay type: nucleic-acid assay; conditions: Bos taurus
MC-38 [10] = test: Antitumor activity against mouse MC38 cells xenografted in C57BL/6 mouse assessed as tumor growth inhibition at 50 mg/kg, ip administered every 2 days for 16 consecutive days; assay type: functional; conditions: MC-38, 384 h, time 16 day, read-out: TGI
HCT-116 [11] = test: Downregulation of SPT16 expression in human HCT-116 cells at 0.17 to 1.5 uM measured after 24 hrs by Western blot analysis; assay type: functional, cell-based; conditions: dose 0.17-1.5 µM
HCT-116 [12] = test: Induction of apoptosis in human HCT-116 cells assessed as increase in cleaved caspase-3 expression at 0.17 to 1.5 uM incubated for 48 hrs by Western blot analysis; assay type: functional, cell-based; conditions: dose 0.17-1.5 µM

- pIC50 (K562): 6.04
- pIC50 (Histone deacetylase 8): 5.52
- Activity (DNA): Active
- Activity (Calf thymus DNA [4]): Active
- pIC50 (Histone deacetylase 1): 7.82
- IC50 [5]: 0.038 µM
- inhibition [6]: Active
- pIC50 (HCT-116 [7]): 6.33
- inhibition [8]: Active
- pIC50 (HepG2): 5.85
- Activity (Calf thymus DNA [9]): Active
SMILES: O=C(CCCCCOc1cccc(-c2nnc(-c3ccccc3)s2)c1)NO
- Activity (MC-38 [1]): Active
- Activity (HCT-116 [2]): 38.5%
- inhibition in vivo at 100 mg/kg (MC-38 [3]): 85.2%
- inhibition (MC38): Active
- pIC50 (HEL): 6.55
- inhibition in vivo at 50 mg/kg (MC-38 [10]): 66%
- Activity (HCT-116 [11]): Active
- Activity (HCT-116 [12]): Active
